In US10682399B2, “Target peptides for colorectal cancer therapy and diagnostics” (University of Virginia Patent Foundation, priority 2012, dated 2020):
Non-standard residues stand in square brackets, D forms with d. No end group written: not given here. pS = N[C@@H](COP(=O)(O)O)C(=O)O

Columns and labels:
Healthy donor PBMC = test: Cultured IFNγ ELISpot on day 7, healthy donor PBMC; type: cell-based, human; conditions: day 7, HLA-matched healthy donors
Procedure: Healthy donor PBMC responses to the CRC tumor-specific phosphopeptides were assessed using a cultured IFNγ ELISpot on day 7.
Generally, quantification of T cell IFNγ production in response to peptides was performed by ELISpot as per manufacturer's instructions. In brief, ELISpotPRO wells, pre-coated with IFNγ monoclonal antibody mAb 1-D1K (MabTech, product code: 3420-2APW-2), were washed four times with sterile PBS and blocked for 30 minutes with 200 μl 10% RPMI 1640 after which the blocking medium was removed.
For ELISpot analysis, PBMCs and CD8+ T cells were isolated fresh from healthy donors and patients. 1×10^6 PBMCs were isolated from both disease patients and healthy donors and re-suspended in AIM-V media (10% human AB serum) in a 96 well plate. Peptide or phosphopeptides were added individually at 10 μg/ml and placed at 37° C. in CO2 incubator for 7 days. Cells were then harvested, washed four times, and re-challenged with either phosphopeptides, peptides, anti CD3 (OKT3, 100 ng/ml, Mabtech) as per manufacturer's instructions. Individual cytokine-producing cells were identified as dark spots after a 15 minute reaction with 5-bromo-4-chloro-3-indolyl phosphate and NBT by means of an alkaline phosphatase conjugate substrate (Mabtech).

CRC cell line SW620 = test: Killing of CRC cell line by phosphopeptide-specific T cell lines; type: cell-based, human; conditions: T cell lines established against the phosphopeptide
Description: T cells lines were established against some of these key phosphopeptide targets.

[1] = test system: Tumor infiltrating lymphocytes (TILs); test: TIL responses to phosphopeptides, multiplexed intracellular cytokine staining for IL-2, IFNγ, TNFα; type: cell-based, human
Procedure: Tumor infiltrating lymphocytes (“TILs”) from the same tumors, were extracted and expanded, and their responses to the phosphopeptides assessed using multiplexed intracellular cytokine staining for IL-2, IFNγ, and TNFα as depicted in FIG. 1A.
Tumor infiltrating lymphocytes (TILs) were also taken from the patient tumors at resection and expanded, using high-dose IL-2 (6000 IU/ml). TIL responses to the phosphopeptides were then tested using ICS. TILs were stimulated with phosphopeptide and cultured for 7 days before being re-stimulated in an intracellular cytokine staining assay assessing production of tumor necrosis factor alpha (TNFα), interferon gamma (IFNγ) and interleukin-2 (IL-2). The results are depicted in FIG. 6.

xenograft tumor = test: Xenograft tumor model system; type: in vivo
Description: (§1) IRS proteins are adapter proteins that link signaling from upstream activators to multiple downstream effectors to modulate normal growth, metabolism, survival and differentiation.

CD8+ T cells = test: Immunization of HLA-A2 transgenic mice with phosphopeptide; type: in vivo, mouse; conditions: immunization with the phosphopeptide
Procedure: In some embodiments, the immunogenicity of a target peptide is measured using transgenic mice expressing human MHC class I genes. For example, “ADD Tg mice” express an interspecies hybrid class I MHC gene, AAD, which contains the α-1 and α-2 domains of the human HLA-A2.1 gene and the α-3 transmembrane and cytoplasmic domains of the mouse H-2Dd gene, under the transcriptional control of the human HLA-A2.1 promoter. Immunodetection of the HLA-A2.1 recombinant transgene established that expression was at equivalent levels to endogenous mouse class I molecules. The mouse α-3 domain expression enhances the immune response in this system. Compared to unmodified HLA-A2.1, the chimeric HLA-A2.1/H2-Dd MHC Class I molecule mediates efficient positive selection of mouse T cells to provide a more complete T cell repertoire capable of recognizing peptides presented by HLA-A2.1 Class I molecules.
The peptide epitopes presented and recognized by mouse T cells in the context of the HLA-A2.1/H2-Dd class I molecule are the same as those presented in HLA-A2.1^+ humans. […]
In some embodiments, the immunogenicity of a modified phosphopeptide is determined by the degree of Interferon gamma (IFNγ) and/or tumor necrosis factor-alpha (TNF-α) production of T cells from ADD Tg mice immunized with the target peptide, e.g., by immunization with target peptide pulsed bone marrow derived dendritic cells. […]

[2] = test system: human melanoma and breast tumors; test: Recognition and killing of tumors in vitro by phosphopeptide-specific CD8+ T cells; type: cell-based
Description: as §1

memory T cells = test: Phosphopeptide-specific memory T cell response in a patient; type: cell-based, human
Description: The phrase “capable of inducing a target peptide-specific memory T cell response in a patient” as used herein relates to eliciting a response from memory T cells (also referred to as “antigen-experienced T cell”), which are a subset of infection- and cancer-fighting T cells that have previously encountered and responded to their cognate antigen. Such T cells can recognize foreign invaders, such as bacteria or viruses, as well as cancer cells. Memory T cells have become “experienced” by having encountered antigen during a prior infection, having encountered cancer, or via previous vaccination. At a second encounter with the cognate antigen (e.g., by way of an initial inoculation with a target peptide of the presently disclosed subject matter), memory T cells can reproduce to mount a faster and stronger immune response than the first time the immune system responded to the invader (e.g., through the body's own consciously unperceived recognition of a target peptide being associated with diseased tissue). This behavior can be assayed in T lymphocyte proliferation assays, which can reveal exposure to specific antigens.
Tensin 3 (TNS3) plays a role in actin remodeling. It is involved in the dissociation of the integrin-tensin-actin complex. EGF activates TNS4 and down-regulates TNS3 which results in capping the tail of ITGB1. […]

With “LPIFSRLsI (LPIFSRL[pS]I; listed as Homo sapiens) [ZFP36L2]” the “Healthy donor PBMC responses, IFNγ ELISpot” value (Healthy donor PBMC) was “many responses were seen” and the “Killing of SW620 by phosphopeptide-specific T cell line” value (CRC cell line SW620) was “specifically kill”.

With “RPRARsVDAL (RPRAR[pS]VDAL; listed as Homo sapiens) [LISCH7]” the TIL response ([1]; TILs from the tumor from which the phosphopeptides were identified, equivalent to the EBV peptide response) was ~2 % of TILs.

With “RTHsLLLLL (RTH[pS]LLLLL; listed as Homo sapiens) [RNASE4]” the “Healthy donor PBMC responses, IFNγ ELISpot” value (Healthy donor PBMC) was “many responses were seen”.

“RTMsEAALVRK (RTM[pS]EAALVRK; listed as Homo sapiens) [RASSF6]” was tested, and the “TIL responses to phosphopeptide (IL-2, IFNγ, TNFα)” value ([1]; TILs extracted from tumors and expanded) was “responses were seen”.

For “RVAsPTSGV (RVA[pS]PTSGV; listed as Homo sapiens) [IRS2 (A2), HLA-A*0201 phosphopeptide from insulin receptor substrate 2]”, the “Tumor growth control by the T cells” value (xenograft tumor) was “controlled tumor growth”, the “Killing of SW620 by phosphopeptide-specific T cell line” value (CRC cell line SW620) was “specifically kill” and the “Generation of phosphopeptide-specific CD8+ T cells” value (CD8+ T cells) was “can be generated”. The “Recognition and killing of human melanoma and breast tumors by the T cells” value [2] was “capable of recognizing and killing”.

For “VMIGsPKKV (VMIG[pS]PKKV; listed as Homo sapiens) [Tensin 3 phosphopeptide]”, the “Phosphopeptide-specific memory T cell response” value (memory T cells) was “capable of inducing a strong phosphopeptide-specific memory T cell response”.
